According to patent publication US20130338155A1, “METHOD FOR TREATING INFECTIONS” (SYNTA PHARMACEUTICALS CORP., priority 2006, published 2013):

Tests used:
Hsp90 protein = experiment: Malachite Green Assay of ATPase activity of Hsp90 protein; type: biochemical; details: 37° C. for 4 hours, FIG. 1
Description: Hsp90 protein was obtained from Stressgen (Cat#SPP-770). Assay buffer: 100 mM Tris-HCl, Ph7.4, 20 mM KCl, 6 mM MgCl2. […] Malachite green reagent was added to the reaction. […] The plate was read by an ELISA reader with an absorbance at 620 nm.

Her2 = experiment: Degradation of Her2 in BT-474 cells (Method 1, Western blot); type: cell-based, Human; details: overnight, FIG. 2
Description: Human high-Her2 breast carcinoma BT474 (HTB-20), SK-BR-3 (HTB-30) and MCF-7 breast carcinoma (HTB-22) from American Type Culture Collection, Va., USA were grown in Dulbecco's modified Eagle's medium with 4 mM L-glutamine and antibiotics (100 IU/ml penicillin and 100 ug/ml streptomycine; GibcoBRL). To obtain exponential cell growth, cells were trypsinized, counted and seeded at a cell density of 0.5×10^6 cells/ml regularly, every 3 days. All experiments were performed on day 1 after cell passage.
BT-474 cells were treated with 0.5 μM, 2 μM, or 5 μM of 17AAG (a positive control) or 0.5 μM, 2 μM, or 5 μM of Compound 108 or Compound 49 overnight in DMEM medium. After treatment, each cytoplasmic sample was prepared from 1×10^6 cells by incubation of cell lysis buffer (#9803, cell Signaling Technology) on ice for 10 minutes. The resulting supernatant used as the cytosol fractions were dissolved with sample buffer for SDS-PAGE and run on a SDS-PAGE gel, blotted onto a nitrocellulose membrane by using semi-dry transfer. Non-specific binding to nitrocellulose was blocked with 5% skim milk in TBS with 0.5% Tween at room temperature for 1 hour, then probed with anti-Her2/ErB2 mAb (rabbit IgG, #2242, Cell Signaling) and anti-Tubulin (T9026, Sigma) as, housekeeping control protein. HRP-conjugated goat anti-rabbit IgG (H+L) and HRP-conjugated horse anti-mouse IgG (H+L) were used as secondary Ab (#7074, #7076, Cell Signaling) and LumiGLO reagent, 20× Peroxide (#7003, Cell Signaling) was used for visualization.

Row | inhibition of ATPase activity of Hsp90 (Hsp90 protein; 4 μM) | Structure (SMILES) | inhibition of ATPase activity of Hsp90 (Hsp90 protein; 40 μM) | degradation of Her2 (Her2; 0.5 μM) | degradation of Her2 (Her2; 2 μM) | degradation of Her2 (Her2; 5 μM)
1 | significant inhibition | Oc1ccc(-c2nnc(S)n2-c2cccc3ccccc23)c(O)c1 [Compound 108, 3-(2,4-Dihydroxy-phenyl)-4-(naphthalen-1-yl)-5-mercapto-triazole] | even greater inhibition of ATPase activity of Hsp90 than geldanamycin | partially degradated | partially degradated | almost completely degraded
2 |  | CCc1cc(-c2nnc(S)n2-c2cccc3ccccc23)c(O)cc1O [Compound 49, 3-(2,4-Dihydroxy-5-ethyl-phenyl)-4-(naphthalen-1-yl)-5-mercapto-triazole] |  | partial degradated | complete degradation | complete degradation
